In patent EP0047496A1, “Sulfonyl ureas, processes for their production, pharmaceutical compositions based on these compounds and their use” (HOECHST AKTIENGESELLSCHAFT, priority 1980, dated 1982):

The compounds below were run on Kaninchen (assay: Blood sugar lowering after oral administration to rabbits (autoanalyzer)). Details: 0,4 mg/kg oral, nach 6 Stunden.
Type: in vivo
Protocol: Die blutzuckersenkende Wirkung der erfindungsgemäßen Benzolsulfonylharnstoffe kann dadurch festgestellt werden, daß man sie als freie Verbindungen oder in Form der Natriumsalze an normal ernährte Kaninchen verfüttert und den Blutzuckerwert nach der bekannten Methode von Hagedorn-Jensen oder mit einem Autoanalyzer über eine längere Zeitdauer ermittelt.
Die routinemäßige Bestimmung der blutzuckersenkenden Wirkung kann mit Dosierungen von z.B. 10,2 oder 0,4 mg oder mit noch geringeren Mengen Wirksubstanz pro kg Versuchstier nach bekannten Methoden erfolgen.
Die folgenden Verbindungen I bis V wurden in Dosierungen von 2 mg/kg Kaninchen oral verabreicht und die Blutzuckerwerte wurden mit einem Autoanalyzer über eine Zeitdauer von 24 Stunden ermittelt. Die hierbei gemessene Blutzuckersenkung ist in der nachfolgenden Tabelle in % nach ... Stunden angegeben. • I N-(4-<2-(N'-<5-Chlor-2-methoxy-benzoyl>-ureido)-äthyl>- benzolsulfonyl)-N'-cyclohexyl-harnstoff • II N-(4-<2-(N'-<5-Chlor-2-methoxy-benzoyl>-ureido)-äthyl>- benzolsulfonyl)-N'-butyl-harnsotff • III N-(4-<2-(N'-<5-Chlor-2-methoxy-benzoyl>-ureido)-äthyl>- benzolsulfonyl)-N'-cyclopentyl-harnstoff • IV N-(4-<2-(N'-<2-Methoxy-5-methyl-benzoyl)-ureido)-äthyl>- benzolsulfonyl)-N'-cyclohexyl-harnstoff • V N-(4-<2-(N'-<2-Methoxy-5-methyl-benzoyl>-ureido)-äthyl>- benzolsulfonyl)-N'-(4-methyl-cyclohexyl)-harnstoff [formula]
Die Verbindungen I, IV und V wurden in Dosierungen von 0,4 mg/kg oral an Kaninchen verabreicht und die Blutzuckersenkung gemessen. Sie betrug nach 6 Stunden 40 % (Verbindung I), 41 % (Verbindung IV) und 33 % (Verbindung V).

Point of comparison: COc1ccc(C)cc1C(=O)NC(=O)NCCc1ccc(S(=O)(=O)NC(=O)NC2CCC(C)CC2)cc1 (stereo not drawn) [Verbindung V, N-(4-<2-(N'-<2-Methoxy-5-methyl-benzoyl>-ureido)-äthyl>- benzolsulfonyl)-N'-(4-methyl-cyclohexyl)-harnstoff], Blutzuckersenkung 33%. Against it:
- COc1ccc(Cl)cc1C(=O)NC(=O)NCCc1ccc(S(=O)(=O)NC(=O)NC2CCCCC2)cc1 [Verbindung I, N-(4-<2-(N'-<5-Chlor-2-methoxy-benzoyl>-ureido)-äthyl>- benzolsulfonyl)-N'-cyclohexyl-harnstoff] — higher, 40%
- COc1ccc(C)cc1C(=O)NC(=O)NCCc1ccc(S(=O)(=O)NC(=O)NC2CCCCC2)cc1 [Verbindung IV] — higher, 41%
